Key:
[1] = tested on: enzyme of 63 kDa molecular weight which breaks the Phe8-Arg9 BK bond; conditions: enzyme contained in urine, described by Ryan et al 1978; cited from earlier work
SHR rats = SHR rats treated with enalapril: blood pressure; format: in vivo, rat; conditions: isogenic hypertensive SHR rats treated with enalapril
[2] = tested on: angiotensin I converting enzyme (ACE); test: ACE enzymatic activity (Hipuril-His-Leu substrate, Friedland and Silverstein method) in essential hypertensive patients after oral captopril; format: in vivo, human; conditions: captopril 50 to 150 mg orally
Experimental: Three days study, each day, each six hours collect duration; samples of blood and urine were collected at the final basal period (1 hour), after they reach the supine position, as well as at the end of the study (after 6 hours). […] The enzymatic activity using Hipuril-His-Leu substrate was measured by Friedland and Silverstein method (1976).

BPP9a
inhibition of the 63 kDa urine enzyme [1]: not inhibited

CCOC(=O)[C@H](CCc1ccccc1)N[C@@H](C)C(=O)N1CCC[C@H]1C(=O)O [enalapril]
blood pressure of treated SHR rats (SHR rats): pressure under control

C[C@H](CS)C(=O)N1CCC[C@H]1C(=O)O [captopril]
inhibition on the enzyme activity ([2]; essential (light and/or mild) arterial hypertensive patients, one-day dose, between 1 and 2 hours after administration, Hipuril-His-Leu substrate): 50%
enzyme activity at the end of the studies ([2]; essential arterial hypertensive patients, end of the study (after 6 hours)): returning to the basal levels
